Molecules are shown by their SMILES.

With `*/C(=C(/*)c1ccc(C(C)(C)C)cc1)c1ccccc1` (repeat unit), the glass transition temperature was determined as 200.00 °C.

With `*/C=C(/*)c1c(F)c(F)c(CCCC)c(F)c1F` (repeat unit), the glass transition temperature came to 110.00 °C.

On to `*C(=O)Nc1ccc(Oc2cccc(NC(=O)c3ccc4c(c3)C(=O)N(c3ccc(-c5sc(-c6ccc(N7C(=O)c8ccc(*)cc8C7=O)cc6)c(-c6ccccc6)c5-c5ccccc5)cc3)C4=O)c2)cc1` (repeat unit), for which the glass transition temperature was determined as 315.00 °C.

`*C(=O)Nc1ccc(Oc2cccc(Oc3ccc(NC(=O)c4ccc5c(c4)C(=O)N(c4ccc(Sc6ccc(Oc7ccc(Sc8ccc(N9C(=O)c%10ccc(*)cc%10C9=O)cc8)cc7)cc6)cc4)C5=O)cc3)c2)cc1` (repeat unit) showed a glass transition temperature of 179.00 °C.

Compound `*C(=O)Nc1ccc(Oc2ccccc2-c2ccccc2Oc2ccc(NC(=O)c3ccc4c(c3)C(=O)N(c3ccc(Cc5ccc(N6C(=O)c7ccc(*)cc7C6=O)cc5)cc3)C4=O)cc2)cc1` (repeat unit) yielded a glass transition temperature of 240.00 °C.

Compound `*C(=O)Nc1ccc(Oc2ccccc2-c2ccccc2Oc2ccc(NC(=O)c3ccc4c(c3)C(=O)N(c3ccc(N5C(=O)c6ccc(*)cc6C5=O)cc3)C4=O)cc2)cc1` (repeat unit) showed a glass transition temperature of 268.00 °C.

In the case of `*C(=O)Nc1ccc(Oc2ccccc2-c2ccccc2Oc2ccc(NC(=O)c3ccc4c(c3)C(=O)N(c3ccc(Oc5ccc(S(=O)(=O)c6ccc(Oc7ccc(N8C(=O)c9ccc(*)cc9C8=O)cc7)cc6)cc5)cc3)C4=O)cc2)cc1` (repeat unit), the glass transition temperature is 236.00 °C.

Consider `*C(=O)Nc1ccc(Oc2ccccc2-c2ccccc2Oc2ccc(NC(=O)c3ccc4c(c3)C(=O)N(c3ccc(Oc5ccccc5-c5ccccc5Oc5ccc(N6C(=O)c7ccc(*)cc7C6=O)cc5)cc3)C4=O)cc2)cc1` (repeat unit), for which the glass transition temperature came out at 227.00 °C.

`*C(=O)Nc1ccc(S(=O)(=O)c2ccc(N3C(=O)CC(N4C(=O)c5ccc(*)cc5C4=O)C3=O)cc2)cc1` (repeat unit) came in with a glass transition temperature of 145.00 °C.

The compound `*C(=O)Nc1ccc(S(=O)(=O)c2ccc(NC(=O)c3ccc(N4C(=O)c5ccc(*)cc5C4=O)cc3)cc2)cc1` (repeat unit) yielded a glass transition temperature of 252.00 °C.

Compound `*C(=O)Nc1ccc(S(=O)(=O)c2ccc(NC(=O)c3ccc4[nH]c(-c5cc(-c6nc7cc(*)ccc7[nH]6)cc(N6C(=O)c7ccccc7C6=O)c5)nc4c3)cc2)cc1` (repeat unit) returned a glass transition temperature of 325.00 °C.

`*C(=O)Nc1ccc(S(=O)(=O)c2ccc(NC(=O)c3ccc4[nH]c(-c5cccc(-c6nc7cc(*)ccc7[nH]6)c5)nc4c3)cc2)cc1` (repeat unit): the glass transition temperature was determined as 312.00 °C.

`*C(=O)Nc1ccc(S(=O)(=O)c2ccc(NC(=O)c3ccc4c(c3)C(=O)N(c3cc(-c5nc6ccccc6o5)cc(N5C(=O)c6ccc(*)cc6C5=O)c3)C4=O)cc2)cc1` (repeat unit) came in with a glass transition temperature of 367.00 °C.

As for `*C(=O)Nc1ccc(S(=O)(=O)c2ccc(NC(=O)c3ccc4c(c3)C(=O)N(c3ccc(Oc5ccc(N6C(=O)c7ccc(*)cc7C6=O)cc5)cc3)C4=O)cc2)cc1` (repeat unit), the glass transition temperature came out at 275.00 °C.

Take `*C(=O)Nc1ccc(S(=O)(=O)c2ccc(NC(=O)c3ccc4c(c3)C(=O)N(c3cccc(N5C(=O)c6ccc(*)cc6C5=O)c3)C4=O)cc2)cc1` (repeat unit): the glass transition temperature was determined as 342.00 °C.

Regarding `*C(=O)Nc1ccc(Sc2ccc(NC(=O)c3ccc4c(c3)C(=O)N(c3ccc(Oc5ccc(C6(c7ccc(Oc8ccc(N9C(=O)c%10ccc(*)cc%10C9=O)cc8)cc7)NC(=O)c7ccccc76)cc5)cc3)C4=O)cc2)cc1` (repeat unit), the glass transition temperature was found to be 312.00 °C.

In turn, `*CCCCCCN1C(=O)c2ccc(C(=O)Nc3ccc(S(=O)(=O)c4ccc(NC(=O)c5ccc6c(c5)C(=O)N(*)C6=O)cc4)cc3)cc2C1=O` (repeat unit) displayed a glass transition temperature of 198.00 °C.

Compound `*CCCCCCN1C(=O)c2ccc(C(=O)Nc3ccc(S(=O)(=O)c4cccc(NC(=O)c5ccc6c(c5)C(=O)N(*)C6=O)c4)cc3)cc2C1=O` (repeat unit) displayed a glass transition temperature of 190.00 °C.

`*Oc1ccc(C(=O)Nc2ccc(S(=O)(=O)c3ccc(NC(=O)c4ccc(Oc5nc(*)nc(Sc6ccccc6)n5)cc4)cc3)cc2)cc1` (repeat unit): the glass transition temperature came out at 310.00 °C.

Take `*Oc1ccc(C(=O)c2ccc(C(=O)c3ccc(*)c(C(C)C)c3)cc2)cc1C` (repeat unit): the glass transition temperature came out at 149.00 °C.

Turning to `*Oc1ccc(Oc2ccc(C(=O)c3ccc(C(=O)c4ccc(*)cc4)cc3)cc2)cc1` (repeat unit), the glass transition temperature came to 152.00 °C.

`*Oc1ccc(Oc2ccc(C(=O)c3ccc(C(=O)c4ccc(*)cc4)cc3)cc2)cc1-c1ccc(S(=O)(=O)O)cc1` (repeat unit) returned a glass transition temperature of 174.00 °C.

For the compound `*Oc1ccc(Oc2ccc(C(=O)c3ccc(C(=O)c4ccc(*)cc4)cc3)cc2)cc1-c1ccccc1` (repeat unit), the glass transition temperature amounted to 166.00 °C.

`*Oc1cccc(C(=O)Nc2ccc(S(=O)(=O)c3ccc(NC(=O)c4cccc(Oc5nc(*)nc(Sc6ccccc6)n5)c4)cc3)cc2)c1` (repeat unit) came in with a glass transition temperature of 304.00 °C.

Turning to `*Oc1cccc2ccc(Oc3ccc(NC(=O)c4ccc(C(c5ccc(C(=O)Nc6ccc(*)cc6)cc5)(C(F)(F)F)C(F)(F)F)cc4)cc3)cc12` (repeat unit), the glass transition temperature amounted to 252.00 °C.

In the case of `*Oc1cccc2ccc(Oc3ccc(NC(=O)c4ccc(S(=O)(=O)c5ccc(C(=O)Nc6ccc(*)cc6)cc5)cc4)cc3)cc12` (repeat unit), the glass transition temperature is 259.00 °C.

With `*Oc1cccc2ccc(Oc3ccc(NC(=O)c4cccc(C(=O)Nc5ccc(*)cc5)c4)cc3)cc12` (repeat unit), the glass transition temperature was found to be 256.00 °C.

Take `*c1ccc(S(=O)(=O)c2ccc(NC(=O)c3cccc(C(=O)Nc4ccc(S(=O)(=O)c5ccc(-n6c(=O)c7cc8c(=O)n(*)c(=O)c8cc7c6=O)cc5)cc4)c3)cc2)cc1` (repeat unit): the glass transition temperature amounted to 286.00 °C.

Consider `*c1ccc2c(c1)C(=O)N(c1ccc(C(=O)Nc3ccc(Oc4cccc(Oc5ccc(NC(=O)c6ccc(N7C(=O)c8ccc(C(*)(C(F)(F)F)C(F)(F)F)cc8C7=O)cc6)cc5)c4)cc3)cc1)C2=O` (repeat unit), for which the glass transition temperature turned out to be 286.00 °C.

Compound `*c1cccc(C(=O)Nc2ccc(Oc3ccc(S(=O)(=O)c4ccc(Oc5ccc(NC(=O)c6cccc(N7C(=O)c8ccc(-c9ccc%10c(c9)C(=O)N(*)C%10=O)cc8C7=O)c6)cc5)cc4)cc3)cc2)c1` (repeat unit) yielded a glass transition temperature of 258.00 °C.

`*c1cccc(C(=O)Nc2ccc(Oc3ccc(S(=O)(=O)c4ccc(Oc5ccc(NC(=O)c6cccc(N7C(=O)c8ccc(-c9cccc%10c9C(=O)N(*)C%10=O)cc8C7=O)c6)cc5)cc4)cc3)cc2)c1` (repeat unit) registered a glass transition temperature of 263.00 °C.

`*c1cccc(C(=O)Nc2ccc(Oc3cccc(Oc4ccc(NC(=O)c5cccc(N6C(=O)c7ccc(-c8ccc9c(c8)C(=O)N(*)C9=O)cc7C6=O)c5)cc4)c3)cc2)c1` (repeat unit): the glass transition temperature came out at 253.00 °C.

`*c1cccc(C(=O)Nc2ccc(Oc3cccc(Oc4ccc(NC(=O)c5cccc(N6C(=O)c7ccc(-c8cccc9c8C(=O)N(*)C9=O)cc7C6=O)c5)cc4)c3)cc2)c1` (repeat unit) came in with a glass transition temperature of 253.00 °C.

Values taken from the PolyMetriX glass transition set.
